Source: patent US20140011853A1, “SUBSTITUTED 3-(BIPHENYL-3-YL)-8,8-DIFLUORO-4-HYDROXY-1-AZASPIRO[4.5]DEC-3-EN-2-ONES FOR THERAPY” (BAYER INTELLECTUAL PROPERTY GMBH, priority 2011, published 2014)
Several values for one entry are separate records, joined by “and”; a condition that tells them apart may be missing. Equal entries are not always repeated.

Legend:
[1] = reference substances with known distribution coefficients; cited from earlier work
Spodoptera frugiperda = Spodoptera frugiperda test (SPODFR spray treatment); type: in vivo; conditions: 500 g/ha, after 7 days
Myzus persicae = test: Myzus test (MYZUPE spray treatment); type: in vivo; conditions: 500 g/ha, after 6 days
From the text: Disks of Chinese cabbage (Brassica pekinensis) infested by all stages of the green peach aphid (Myzus persicae) are sprayed with an active compound formulation of the desired concentration.

Tetranychus urticae = test: Tetranychus test, OP-resistant (TETRUR spray treatment); type: in vivo; conditions: 500 g/ha, after 6 days
Meloidogyne incognita = Meloidogyne incognita test (MELGIN); type: in vivo; conditions: 20 ppm, after 14 days
Protocol: • Solvent: 125 parts by weight of acetone
Containers are filled with sand, solution of active compound, Meloidogyne incognita egg/larvae suspension and lettuce seeds. The lettuce seeds germinate and the plants develop. On the roots, galls are formed. After 14 days, the nematicidal effect in % is determined by the formation of galls. 100% means that no galls have been found; 0% means that the number of galls on the treated plants corresponds to the untreated control.

Lucilia cuprina = Lucilia cuprina test (LUCICU); type: in vivo; conditions: 100 ppm, after 2 days
From the text: (§1) • Solvent: dimethyl sulphoxide
Vessels containing horse meat treated with the active compound preparation of the desired concentration are populated with about 20 Lucilia cuprina larvae.

Boophilus microplus = Boophilus microplus test (BOOPMI injection); type: in vivo; conditions: 20 μg/animal, after 7 days
Protocol: as §1
The solution of active compound is injected into the abdomen (Boophilus microplus), and the animals are transferred into dishes and kept in a climatized room. The activity is assessed by […] of fertile eggs.

Phaedon cochleariae = test: Phaedon test (PHAECO spray treatment); conditions: 500 g/ha, after 7 days
human ACC1 = test: Human ACC1 enzyme assay (ADP-Glo); type: biochemical
KM12 = test: Tumour cell proliferation, CellTiter-Glo, 96-hour incubation, KM12; type: cell-based; conditions: Homo sapiens, KM12, 96 h; read-out: KM12 IC50
Protocol: (§2) In accordance with the invention, the substances were tested in cell-based assays for the ability of the substances of inhibiting tumour cell proliferation after a 96-hour incubation with the substance. Cell viability was tested using the CellTiter-Glo® luminescent cell viability assay (Promega). The cells were sown at a density of 2000-5000 cells/well (depending on the cell line) in 100 μl growth medium on 96-well microtiter plates. For each cell line examined, cells were sown on a separate plate to determine the luminescence at t=0 hours and t=96 hours. After overnight incubation at 37° C., the luminescence values for the t=0 samples were determined. The dose plates for the t=96 hours points in time were treated with substances diluted with growth medium. The cells were then incubated at 37° C. for 96 hours, and the luminescence values for the t=96 hours samples were then determined. For data analysis, the t=0 values were subtracted from the t=96 hours values for treated and untreated samples. The differences in luminescence in percent between substance-treated samples and control values were used to determine the growth inhibition in percent.
(§3) The substances were tested in the following cell lines which represent the stated indications in an exemplary manner: […]

PC3 = test: Tumour cell proliferation, CellTiter-Glo, 96-hour incubation, PC3; type: cell-based; conditions: Homo sapiens, PC-3, 96 h; read-out: PC3 IC50
Protocol: as §2, §3

H460 = test: Tumour cell proliferation, CellTiter-Glo, 96-hour incubation, H460; type: cell-based; conditions: Homo sapiens, NCI-H460, 96 h; read-out: H460 IC50
Protocol: as §2, §3

MCF7 = test: Tumour cell proliferation, CellTiter-Glo, 96-hour incubation, MCF7; type: cell-based; conditions: Homo sapiens, MCF7, 96 h; read-out: MCF7 IC50
Protocol: as §2, §3

[2] = Octanol/water distribution coefficient (logP/D), isocratic HPLC method; type: physicochemical; conditions: pH 7.4
From the text: Assay for Determining the Octanol/Water Distribution Coefficient (logP/D):
The distribution coefficient octanol/water P or D is a key parameter for estimating membrane penetration and permeability. It is defined as the ratio of the equilibrium concentrations of a substance in the two-phase system octanol/water.
It is usually stated in form of the decadic logarithm (logP or logD).
logP describes the distribution behaviour of a substance exclusively present in its neutral form. logD describes the distribution behaviour of a substance at a certain pH; depending on the ionization constant pKa of the substance, some of the substance may be present in ionic form, and some in neutral form.
The logP/D of the active compounds was determined using an isocratic HPLC method (HPLC=high performance liquid chromatography) (literature: OECD Guideline for Testing of Chemicals No. 117). The method is based on the correlation of the HPLC retention time of the test substance to that of reference substances with known distribution coefficients.
The test substance was employed as a 10 mM solution in DMSO (DMSO=dimethyl sulphoxide). 10 μl of this solution were made up to 100 μl with a methanol/water mixture in a ratio of 7+3.
The nine reference substances were dissolved individually in methanol. 100 μl each of the stock solutions were added to an HPLC vial and mixed with 300 μl of water.
A formamide solution was used to determine the hold-up time. To this end, 7 mg of formamide were dissolved in 10 ml of methanol. 100 μl of this stock solution were mixed with 500 μl of methanol and 200 μl of water.
All solutions were chromatographed using a flow rate of 1.00 ml/min.
Injection Protocol: formamide, references, test substance 1, test substance 2, . . . , formamide, references.
Evaluation of the retention times was carried out in a diode array detector (DAD) at 200-400 nm Via the molecular mass, the identity of the test substance was checked using the downstream mass spectrometer.
The HPLC run was evaluated using the Waters software Masslynx 4.1.
The logP/D values were calculated using the software “POW Determination” (proprietary development).

[3] = Membrane affinity logMA (MA-Transil); type: physicochemical; conditions: buffer pH 7.4
plasma proteins = test: Plasma protein binding by equilibrium dialysis, mouse; type: in vitro ADME
Protocol: The binding of test substances to plasma proteins is determined by equilibrium dialysis by means of the Ht-dialysis apparatus (96-well) made of Teflon and a semipermeable membrane (regenerated cellulose, MWCO 12-14K). This separates 150 μl each of a plasma side and a buffer side (50 mM phosphate buffer). The test substance is added in 2 concentrations (usually 3 and 0.3 μM) to the plasma side and binds to plasma proteins. The unbound fraction of the test substance passes through the membrane and is distributed on either side until equilibrium is established (after approx. 6-8 h at 37° C.). The substance concentration on the buffer side and the plasma side is determined by LC-MS analysis. For this, both sides are brought by dilution with buffer or plasma to the same matrix (10% plasma) and then precipitated with methanol. The free (unbound) fraction (fu) is calculated from the quotient of the buffer and plasma concentration. Stability tests and recovery tests are run concurrently as controls. In addition, the substance in buffer is dialysed against buffer, to check the nonspecific binding to apparatus and membrane and establishment of equilibrium. Because during incubation the osmotic pressure of the plasma proteins leads to dilution of the plasma (volume shift), this possible error is determined by weighing blank plasma samples and is included in the calculation of fu. Establishment of equilibrium and plasma stability should have a value not lower than 80% and the recovery should be at least 30%. A free fraction of <1% is regarded as high, between 1 and 10% as moderate and >10% as low plasma protein binding.

human ACC2 = human ACC2 (Homo sapiens, UniProt O00763); test: Human ACC2 enzyme assay (ADP-Glo); conditions: ACC 2 IC50, individual measurements
[4] = molecular target: human serum albumin (HSA) (Homo sapiens, UniProt P02768); test: Protein binding to human serum albumin (HSA-Transil); conditions: human, pH 7.4
Chain of human serum albumin (HSA) (P02768 25-609): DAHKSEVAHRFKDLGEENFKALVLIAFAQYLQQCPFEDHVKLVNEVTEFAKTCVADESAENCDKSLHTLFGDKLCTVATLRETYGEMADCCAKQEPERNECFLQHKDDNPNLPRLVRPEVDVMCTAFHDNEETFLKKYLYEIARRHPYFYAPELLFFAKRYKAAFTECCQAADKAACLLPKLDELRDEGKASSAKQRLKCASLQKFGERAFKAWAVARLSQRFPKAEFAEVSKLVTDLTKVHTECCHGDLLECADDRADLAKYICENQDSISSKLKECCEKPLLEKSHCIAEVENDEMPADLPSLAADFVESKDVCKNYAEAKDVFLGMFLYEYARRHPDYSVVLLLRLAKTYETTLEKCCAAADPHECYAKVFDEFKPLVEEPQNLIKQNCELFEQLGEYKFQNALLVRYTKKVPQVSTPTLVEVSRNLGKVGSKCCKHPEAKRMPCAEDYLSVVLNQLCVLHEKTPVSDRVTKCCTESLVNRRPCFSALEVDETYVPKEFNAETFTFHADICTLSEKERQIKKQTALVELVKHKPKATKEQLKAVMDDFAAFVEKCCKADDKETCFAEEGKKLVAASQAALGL

Chain of human ACC2 (O00763 27-2458 limits assumed): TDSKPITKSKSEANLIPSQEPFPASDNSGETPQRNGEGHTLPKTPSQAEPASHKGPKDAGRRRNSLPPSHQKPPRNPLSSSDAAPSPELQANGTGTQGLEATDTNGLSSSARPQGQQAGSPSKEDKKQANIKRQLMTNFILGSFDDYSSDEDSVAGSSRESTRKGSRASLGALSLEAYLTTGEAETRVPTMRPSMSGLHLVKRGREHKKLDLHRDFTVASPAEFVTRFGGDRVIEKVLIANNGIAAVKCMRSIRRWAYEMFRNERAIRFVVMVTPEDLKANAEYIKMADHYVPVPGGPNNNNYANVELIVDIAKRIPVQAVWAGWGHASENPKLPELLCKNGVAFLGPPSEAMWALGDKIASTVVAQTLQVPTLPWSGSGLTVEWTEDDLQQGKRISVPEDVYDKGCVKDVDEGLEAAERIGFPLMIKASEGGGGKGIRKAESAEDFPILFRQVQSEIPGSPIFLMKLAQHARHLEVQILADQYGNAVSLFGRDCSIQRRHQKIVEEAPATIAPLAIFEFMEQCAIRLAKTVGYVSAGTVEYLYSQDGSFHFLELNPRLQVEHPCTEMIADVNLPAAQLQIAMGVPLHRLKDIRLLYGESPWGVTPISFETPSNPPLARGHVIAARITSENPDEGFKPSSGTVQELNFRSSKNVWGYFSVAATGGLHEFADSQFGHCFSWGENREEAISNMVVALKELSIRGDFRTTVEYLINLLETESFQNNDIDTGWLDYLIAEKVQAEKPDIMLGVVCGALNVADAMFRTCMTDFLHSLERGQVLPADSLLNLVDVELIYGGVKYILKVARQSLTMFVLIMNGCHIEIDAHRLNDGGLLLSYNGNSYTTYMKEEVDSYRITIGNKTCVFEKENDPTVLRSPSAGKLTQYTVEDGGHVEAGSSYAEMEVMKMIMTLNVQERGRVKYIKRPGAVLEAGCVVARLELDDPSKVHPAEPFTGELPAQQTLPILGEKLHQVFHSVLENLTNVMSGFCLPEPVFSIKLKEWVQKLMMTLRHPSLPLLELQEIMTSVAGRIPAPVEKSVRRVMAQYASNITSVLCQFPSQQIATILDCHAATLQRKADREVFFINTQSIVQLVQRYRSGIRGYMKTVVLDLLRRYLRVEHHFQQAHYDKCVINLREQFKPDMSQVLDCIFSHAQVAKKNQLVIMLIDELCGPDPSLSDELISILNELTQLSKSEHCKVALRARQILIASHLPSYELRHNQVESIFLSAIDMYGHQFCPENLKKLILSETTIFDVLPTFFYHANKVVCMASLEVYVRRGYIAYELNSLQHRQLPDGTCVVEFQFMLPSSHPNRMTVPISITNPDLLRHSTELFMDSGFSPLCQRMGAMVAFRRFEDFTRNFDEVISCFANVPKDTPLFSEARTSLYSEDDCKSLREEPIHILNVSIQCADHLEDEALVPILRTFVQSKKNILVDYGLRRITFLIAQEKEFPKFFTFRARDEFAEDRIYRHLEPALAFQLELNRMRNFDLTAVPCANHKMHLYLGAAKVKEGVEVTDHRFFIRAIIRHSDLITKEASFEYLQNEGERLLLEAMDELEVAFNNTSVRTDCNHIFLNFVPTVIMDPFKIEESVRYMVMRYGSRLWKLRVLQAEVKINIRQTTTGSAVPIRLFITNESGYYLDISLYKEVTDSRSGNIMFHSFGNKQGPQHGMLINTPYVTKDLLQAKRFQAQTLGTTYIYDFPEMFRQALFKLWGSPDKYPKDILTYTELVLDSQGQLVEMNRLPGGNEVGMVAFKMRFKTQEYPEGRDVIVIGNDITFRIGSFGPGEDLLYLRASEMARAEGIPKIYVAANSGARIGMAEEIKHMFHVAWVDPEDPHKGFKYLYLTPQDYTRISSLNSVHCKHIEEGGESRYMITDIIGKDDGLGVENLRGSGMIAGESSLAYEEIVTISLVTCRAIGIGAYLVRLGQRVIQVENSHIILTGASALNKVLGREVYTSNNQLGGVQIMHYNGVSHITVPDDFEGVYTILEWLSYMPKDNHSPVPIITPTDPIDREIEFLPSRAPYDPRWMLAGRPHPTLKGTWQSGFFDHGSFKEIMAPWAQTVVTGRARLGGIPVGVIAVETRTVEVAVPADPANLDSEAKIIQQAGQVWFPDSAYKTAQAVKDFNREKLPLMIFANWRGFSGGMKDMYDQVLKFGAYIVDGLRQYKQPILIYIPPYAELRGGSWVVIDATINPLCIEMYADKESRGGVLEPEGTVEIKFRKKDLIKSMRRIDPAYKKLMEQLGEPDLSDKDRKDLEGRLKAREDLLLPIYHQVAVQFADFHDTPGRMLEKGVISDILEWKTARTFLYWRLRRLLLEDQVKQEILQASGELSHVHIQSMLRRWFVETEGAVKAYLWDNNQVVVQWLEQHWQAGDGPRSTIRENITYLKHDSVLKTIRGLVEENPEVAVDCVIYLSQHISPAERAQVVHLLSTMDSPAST

## Clc1ccc(C(c2ccc(Cl)cc2)C(Cl)(Cl)Cl)cc1 [DDT]
[1]
  log P: 6.2

## Cc1ccc(-c2ccc(F)cc2)c(C)c1C1=C(O)C2(CCC(F)(F)CC2)NC1=O [Example I-1-a-2]
Spodoptera frugiperda
  effect (kill of caterpillars): 100%
Myzus persicae
  effect (kill of aphids): 100%
Tetranychus urticae
  effect (kill of spider mites): 100%
Meloidogyne incognita
  nematicidal effect (formation of galls): 100%
Lucilia cuprina
  kill of larvae: 100%
Boophilus microplus
  effect (no fertile eggs): 80%
Phaedon cochleariae
  effect (kill of beetle larvae): 100%

## Cc1ccc(-c2ccc(Cl)cc2)cc1C1=C(O)[C@]2(CC[C@H](C(F)(F)F)CC2)NC1=O [V.2-a, (5s,8s)-3-(4′-Chloro-4-methylbiphenyl-3-yl)-4-hydroxy-8-(trifluoromethyl)-1-azaspiro[4.5]dec-3-en-2-one, reference compound]
Human ACC1
  Selectivity ACC1 vs. ACC2 (mean of the individual measurements ± standard deviation): 9.8 ± 1.4
Human ACC1; pairwise, same dilution series
  Ratio of IC50s ACC2/ACC1 (respective measurement): 11.2 and 8.4
KM12
  IC50: 37 nM
PC3
  IC50: 38 nM
H460
  IC50: 57 nM
MCF7
  IC50: 35 nM
[2]
  chromatographic logP: 2.23
[3]
  logMA: 2.38 (2.0-2.7, n = 4)
Plasma proteins
  fu (mouse): 2.41%
Human ACC2
  IC50: 1220 nM and 940 nM
[4]
  Kd at 0.25 μmol/liter: 3070 nM
